Test results taken from US7799809B2, “Carboxamide compounds and their use as calpain inhibitors” (Abbott GmbH & Co. KG, priority 2006, dated 2010).

target: T1, cathepsin S (Homo sapiens, UniProt P25774); assay: Cathepsin S enzyme inhibition in vitro (kinetic fluorescence assay); format: biochemical; settings: recombinant human cathepsin S vs calpain I
T1 construct: purchased Calbiochem 219343; host or cells: E. coli
Experimental: (§1) The following solutions and buffers were employed: • HBS (for 40 ml): 800 μl M HEPES; 2.16 ml 100 mM KCl; 4.8 ml 1M NaCl; 3.59 ml 5% glucose; 60 μl μM MgSO4; 400 μl 100 mM Na pyruvate, 28.19 ml water; pH 7.2-7.5. • lysis buffer (for 20 ml): 400 μl M Tris pH 8.2; 2.74 ml 1M NaCl; 520 μl 0.5M EDTA; 2 ml 10% triton X-100; 0.8 ml (=1:25) CompletePlus (1 tablet/2 ml H2O); 200 μl 100 mM Pefabloc; 13.34 ml water, pH 8.2. • TBST (10×) (for 1 l): 100 mM Tris (12.1 g); 1.5M NaCl (87 g); 1% Tween 20 (10 g), adjusted to pH 8. I Enzyme Inhibition In Vitro: • Testing for blockade of the corresponding enzymic activities was carried out by means of kinetic fluorescence assays (excitation 390 nm, emission 460 nm). • Apparent Ki values were calculated from the experimentally determined IC50 values by the Cheng-Prussoff relation assuming a reversible competitive enzyme inhibition. The Km values of the substrates used under the assay conditions indicated above were: 90 μM (Z-Phe-Arg-AMC, cathepsin B), 10 μM (Z-Gly-Pro-Arg-AMC, cathepsin K), 2 μM (Z-Phe-Arg-AMC, cathepsin L), and 30 μM (Z-Val-Val-Arg-AMC, cathepsin S). • The indicated Ki values are averages of the inhibition constants calculated on the basis of 2 to 4 independent dose-effect plots.
(§2) The following assays were used: • 1. Calpain I: • 20 nM calpain-I—isolated from human erythrocytes (Calbiochem #208713), 100 μM Suc-Leu-Tyr-AMC (Bachem #1-1355) as substrate in buffer with 62 mM imidazole, 0.3 mM CaCl2, 0.10% CHAPS, 0.05% BSA, 1 mM DTT at pH 7.3 and room temperature. • 2. Cathepsin B: • 0.25 nM cathepsin B—isolated from human liver (Calbiochem #219362), 100 μM Z-Phe-Arg-AMC (Bachem #I-1160) as substrate 50 mM MES, 2 mM EDTA, 0.05% Brij 35, 2.5 mM L-cysteine, pH 6.0, room temperature. • 3. Cathepsin K: • 3 nM cathepsin K—activated from recombinant human procathepsin K from E. coli (Calbiochem #342001), 10 μM Z-Gly-Pro-Arg-AMC (Biomol #P-142) as substrate in 50 mM MES, 2 mM EDTA, 0.05% Brij 35, 2.5 mM L-cysteine, pH 6.0, room temperature. • 4. Cathepsin L: • 1 nM cathepsin L—isolated from human liver (Calbiochem #219402), 2 μM Z-Phe-Arg-AMC (Bachem #1-1160) as substrate in 50 mM MES, 2 mM EDTA, 0.05% Brij 35, 2.5 mM L-cysteine, pH 6.0, room temperature. • 5. Cathepsin S: • 0.5 nM recombinant human cathepsin S from E. coli (Calbiochem #219343), 20 μM Z-Val-Val-Arg-AMC (Bachem #1-1540) as substrate in 50 mM MES, 2 mM EDTA, 0.05% Brij 35, 2.5 mM L-cysteine, pH 6.0, room temperature. • The results of the in vitro determination are indicated in Table 1. The following abbreviations are used in Table 1: • The “Calpain activity” column, ++ stands for a calpain Ki (Ki(calpain)) of ≦40 nM and + means: 40 nM<Ki(Calpain)≦100 nM. • The “Sel. cat. B” column indicates the Ki(cathepsin B)/Ki(calpain) ratio. In this connection, ++ means a Ki(cathepsin B)/Ki(calpain) ratio of ≧30 and + means 10≦Ki(cathepsin B)/Ki(calpain)<30. • The “Sel. cat. K” column indicates the Ki(cathepsin K)/Ki(calpain) ratio. In this connection, ++ means a Ki(cathepsin K)/Ki(calpain) ratio of ≧30 and + means 10≦Ki(cathepsin K)/Ki(calpain)<30. • The “Sel. cat. L” column indicates the Ki(cathepsin L)/Ki(calpain) ratio. In this connection, ++ means a Ki(cathepsin L)/Ki(calpain) ratio of ≧50 and + means 30≦Ki(cathepsin L)/Ki(calpain)<50. • The “Sel. cat. S” column indicates the Ki(cathepsin S)/Ki(calpain) ratio. In this connection, ++ means a Ki(cathepsin S)/Ki(calpain) ratio of ≧100 and + means 50≦Ki(cathepsin S)/Ki(calpain)<100.

T1 sequence (P25774 115-331): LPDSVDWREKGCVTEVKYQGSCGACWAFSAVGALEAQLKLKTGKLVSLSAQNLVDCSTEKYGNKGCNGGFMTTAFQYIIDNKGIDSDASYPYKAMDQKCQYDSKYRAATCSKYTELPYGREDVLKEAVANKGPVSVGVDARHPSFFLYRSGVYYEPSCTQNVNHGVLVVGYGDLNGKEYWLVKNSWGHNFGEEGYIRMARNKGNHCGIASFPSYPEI

SMILES	Sel cat. S: Ki(cathepsin S)/Ki(calpain) ratio
CCN(CC)Cc1ccc(-c2ccn(-c3ncccc3C(=O)NC(Cc3ccccc3)C(=O)C(N)=O)n2)cc1.Cl (stereo not shown) [Example 43, N-(3-Amino-1-benzyl-2,3-dioxopropyl)-2-(3-{4-[(diethylamino)methyl]phenyl}-1H-pyrazol-1-yl)nicotinamide hydrochloride]	++ (++ means a Ki(cathepsin S)/Ki(calpain) ratio of ≧100)
CCN(CC)c1ccc(-c2ccn(-c3ncccc3C(=O)NC(Cc3ccccc3)C(=O)C(N)=O)n2)cc1 (stereo not shown) [Example 42, N-(3-Amino-1-benzyl-2,3-dioxopropyl)-2-{3-[4-(diethylamino)phenyl]-1H-pyrazol-1-yl}nicotinamide]	++ (++ means a Ki(cathepsin S)/Ki(calpain) ratio of ≧100)
NC(=O)C(=O)C(Cc1ccccc1)NC(=O)c1cccnc1-n1ccc(-c2ccc(-n3ccnc3)cc2)n1 (stereo not shown) [Example 101, N-[3-Amino-2,3-dioxo-1-(phenylmethyl)propyl]-2-{3-[4-(1H-imidazol-1-yl)phenyl]-1H-pyrazol-1-yl}pyridine-3-carboxamide]	++ (++ means a Ki(cathepsin S)/Ki(calpain) ratio of ≧100)
NC(=O)C(=O)C(Cc1ccccc1)NC(=O)c1cccnc1-n1cc(-c2ccccc2F)cn1 (stereo not shown) [Example 104, N-[3-Amino-2,3-dioxo-1-(phenylmethyl)propyl]-2-[4-(2-fluorophenyl)-1H-pyrazol-1-yl]pyridine-3-carboxamide]	+ (+ means 50≦Ki(cathepsin S)/Ki(calpain)<100)
NC(=O)C(=O)C(Cc1ccccc1)NC(=O)c1cccnc1-n1ccc(-c2ccc(CN3CCOCC3)cc2)n1 (stereo not shown) [Example 46, N-(3-Amino-1-benzyl-2,3-dioxopropyl)-2-{3-[4-(morpholin-4-ylmethyl)phenyl]-1H-pyrazol-1-yl}nicotinamide]	++ (++ means a Ki(cathepsin S)/Ki(calpain) ratio of ≧100)
CCCCC(NC(=O)c1cccnc1-n1ccc(-c2ccc(CN3CCOCC3)cc2)n1)C(=O)C(N)=O (stereo not shown) [Example 45, N-{1-[Amino(oxo)acetyl]pentyl}-2-{3-[4-(morpholin-4-ylmethyl)phenyl]-1H-pyrazol-1-yl}nicotinamide]	+ (+ means 50≦Ki(cathepsin S)/Ki(calpain)<100)
NC(=O)C(=O)C(Cc1ccccc1)NC(=O)c1cccnc1-n1cc(CCN2CCOCC2)c(-c2ccc(F)cc2)n1 (stereo not shown) [Example 165, N-[3-Amino-2,3-dioxo-1-(phenylmethyl)propyl]-2-[3-(4-fluorophenyl)-4-(2-morpholin-4-ylethyl)-1H-pyrazol-1-yl]pyridine-3-carboxamide]	++ (++ means a Ki(cathepsin S)/Ki(calpain) ratio of ≧100)
CCCCC(NC(=O)c1cccnc1-n1ccc(-c2ccc(N(CC)CC)cc2)n1)C(=O)C(N)=O (stereo not shown) [Example 47, N-{1-[Amino(oxo)acetyl]pentyl}-2-{3-[4-(diethylamino)phenyl]-1H-pyrazol-1-yl}nicotinamide]	++ (++ means a Ki(cathepsin S)/Ki(calpain) ratio of ≧100)
CN(C)Cc1cn(-c2ncccc2C(=O)NC(Cc2ccccc2)C(=O)C(N)=O)nc1-c1cccc(C(F)(F)F)c1 (stereo not shown) [Example 176, N-[3-Amino-2,3-dioxo-1-(phenylmethyl)propyl]-2-{4-[(dimethylamino)methyl]-3-[3-(trifluoromethyl)phenyl]-1H-pyrazol-1-yl}pyridine-3-carboxamide]	++ (++ means a Ki(cathepsin S)/Ki(calpain) ratio of ≧100)
NC(=O)C(=O)C(Cc1ccccc1)NC(=O)c1cccnc1-n1cnc(-c2ccc(N3CCOCC3)cc2)c1 (stereo not shown) [Example 14, N-(3-Amino-1-benzyl-2,3-dioxopropyl)-2-[4-(4-morpholin-4-ylphenyl)-1H-imidazol-1-yl]nicotinamide]	++ (++ means a Ki(cathepsin S)/Ki(calpain) ratio of ≧100)
NC(=O)C(=O)C(Cc1ccccc1)NC(=O)c1cccnc1-n1ccc(-c2ccncc2)n1 (stereo not shown) [Example 65, N-(3-Amino-1-benzyl-2,3-dioxopropyl)-2-(3-pyridin-4-yl-1H-pyrazol-1-yl)nicotinamide]	++ (++ means a Ki(cathepsin S)/Ki(calpain) ratio of ≧100)
CCCCC(NC(=O)c1cccnc1-n1ccc(-c2ccc(CN(CC)CC)cc2)n1)C(=O)C(N)=O (stereo not shown) [Example 44, N-{1-[Amino(oxo)acetyl]pentyl}-2-(3-{4-[(diethylamino)methyl]phenyl}-1H-pyrazol-1-yl)nicotinamide]	+ (+ means 50≦Ki(cathepsin S)/Ki(calpain)<100)
NC(=O)C(=O)C(Cc1ccccc1)NC(=O)c1cccnc1-n1cc(CN2CCCC2)c(-c2cccc(C(F)(F)F)c2)n1 (stereo not shown) [Example 178, N-[3-Amino-2,3-dioxo-1-(phenylmethyl)propyl]-2-{4-(pyrrolidin-1-ylmethyl)-3-[3-(trifluoromethyl)phenyl]-1H-pyrazol-1-yl}pyridine-3-carboxamide]	++ (++ means a Ki(cathepsin S)/Ki(calpain) ratio of ≧100)
NC(=O)C(=O)C(Cc1ccccc1)NC(=O)c1cccnc1-n1cc(CN2CCOCC2)c(-c2cccc(C(F)(F)F)c2)n1 (stereo not shown) [Example 177, N-[3-Amino-2,3-dioxo-1-(phenylmethyl)propyl]-2-{4-(morpholin-4-ylmethyl)-3-[3-(trifluoromethyl)phenyl]-1H-pyrazol-1-yl}pyridine-3-carboxamide]	++ (++ means a Ki(cathepsin S)/Ki(calpain) ratio of ≧100)
CCCCC(NC(=O)c1cccnc1-n1ccc(-c2ccccc2)n1)C(=O)C(N)=O (stereo not shown) [Example 6, N-{1-[Amino(oxo)acetyl]pentyl}-2-(3-phenyl-1H-pyrazol-1-yl)nicotinamide]	+ (+ means 50≦Ki(cathepsin S)/Ki(calpain)<100)
Cl.NC(=O)C(=O)C(Cc1ccccc1)NC(=O)c1cccnc1-n1ccc(-c2cccc(CN3CCOCC3)c2)n1 (stereo not shown) [Example 52, N-(3-Amino-1-benzyl-2,3-dioxopropyl)-2-{3-[3-(morpholin-4-ylmethyl)phenyl]-1H-pyrazol-1-yl}nicotinamide hydrochloride]	++ (++ means a Ki(cathepsin S)/Ki(calpain) ratio of ≧100)

target: T2, cathepsin L (Homo sapiens, UniProt P07711); assay: Cathepsin L enzyme inhibition in vitro (kinetic fluorescence assay); format: biochemical; settings: cathepsin L isolated from human liver vs calpain I
T2 construct: cathepsin L—isolated from human liver (Calbiochem #219402); purchased Calbiochem 219402; host or cells: human liver (tissue-derived)
T2 sequence (P07711 114-333): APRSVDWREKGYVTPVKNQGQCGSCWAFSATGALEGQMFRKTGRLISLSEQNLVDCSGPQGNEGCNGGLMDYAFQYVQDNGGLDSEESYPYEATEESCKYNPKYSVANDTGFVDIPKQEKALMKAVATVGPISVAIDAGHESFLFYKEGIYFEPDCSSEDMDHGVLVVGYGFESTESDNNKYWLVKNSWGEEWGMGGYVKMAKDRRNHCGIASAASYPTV
Experimental: as §1, §2

SMILES	Sel cat. L: Ki(cathepsin L)/Ki(calpain) ratio
CCCCC(NC(=O)c1cccnc1-n1cnc(-c2ccccc2)c1)C(=O)C(N)=O (stereo not shown) [Example 2, N-{1-[Amino(oxo)acetyl]pentyl}-2-(4-phenyl-1H-imidazol-1-yl)nicotinamide]	++ (++ means a Ki(cathepsin L)/Ki(calpain) ratio of ≧50)
COCc1cn(-c2ncccc2C(=O)NC(Cc2ccccc2)C(=O)C(N)=O)nc1-c1ccc(F)cc1 (stereo not shown) [Example 170, N-[3-Amino-2,3-dioxo-1-(phenylmethyl)propyl]-2-{3-(4-fluorophenyl)-4-[(methyloxy)methyl]-1H-pyrazol-1-yl}pyridine-3-carboxamide]	+ (+ means 30≦Ki(cathepsin L)/Ki(calpain)<50)
CCCCC(NC(=O)c1cc(Cl)cnc1-n1cnc(-c2ccccc2)c1)C(=O)C(N)=O.Cl (stereo not shown) [Example 24, N-{1-[Amino(oxo)acetyl]pentyl}-5-chloro-2-(4-phenyl-1H-imidazol-1-yl)nicotinamide hydrochloride]	+ (+ means 30≦Ki(cathepsin L)/Ki(calpain)<50)
